Laboratory results reported in the supplement of paper PMC6580486.

What was measured:
PCB490-3 = test system: PCB490-3 (human epithelioid sarcoma primary culture)
Experimental: (§1)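 Roche open-access kinase inhibitor screen (223 compounds) on human epithelioid sarcoma primary cultures from three spatially distinct regions of tumor PCB490. 384-well plates, 72 h, CellTiter-Glo viability; IC50 by Hill curve fit. 100000 nM = no IC50 reached. Compound ids carry a plate-well prefix, which is stripped.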

PCB490-4 = test system: PCB490-4 (human epithelioid sarcoma primary culture)
Experimental: as §1

PCB490-5 = test system: PCB490-5 (human epithelioid sarcoma primary culture)
Experimental: as §1

Row | Compound | IC50 cell viability (PCB490-3) [µM] | IC50 cell viability (PCB490-4) [µM] | IC50 cell viability (PCB490-5) [µM]
1 | Nc1c(C(=O)c2cccc(-c3ccncc3)c2)cnn1-c1ccc(F)cc1F | > 100 | > 100 | > 100
2 | COc1cccc(C2=C(c3cn(C)c4cccc(OC)c34)C(=O)NC2=O)c1 | > 100 | > 100 | > 100
3 | O=C1NC(=NCc2ccccn2)S/C1=C\c1ccc2ncccc2c1 | > 100 | > 100 | > 100
4 | O=C1NC(=NCCCc2ccccc2)S/C1=C\c1ccc2ncccc2c1 | > 100 | > 100 | > 100
5 | Cc1[nH]nc2c1N=C(c1ccccc1F)c1cc(C(N)=O)ccc1N2 | > 100 | 2.66 | 4.23
6 | Cn1cc(C2=C(c3c4n(c5ccccc35)CCC(CN)CC4)C(=O)NC2=O)c2ccccc21 (stereo not given) | > 100 | > 100 | > 100
7 | Cn1c(=O)c(Oc2ccc(F)cc2F)cc2cnc(NCCS(C)(=O)=O)nc21 | > 100 | > 100 | > 100
8 | Cn1cc(C2=C(c3cn(CCCCCN)c4ccccc34)C(=O)NC2=O)c2ccccc21 | > 100 | > 100 | > 100
9 | Cn1cc(C2=C(c3ccccc3C(F)(F)F)C(=O)NC2=O)c2ccccc21 | > 100 | > 100 | > 100
10 | Nc1c(C(=O)c2cccc(C#CCO)c2)cnn1-c1ccc(F)cc1 | > 100 | > 100 | > 100
11 | CC(=O)N[C@@H](Cc1ccc(OP(=O)(O)O)cc1)C(=O)N[C@H]1CCC(=O)N2CCC[C@@H](C(=O)NCc3ccccc3)N2C1=O | > 100 | > 100 | > 100
12 | COc1cc[nH]c1/C=C1\C(=O)Nc2ccccc21 | > 100 | > 100 | > 100
13 | COc1cccc(C2=C(c3cn(C)c4ccc(Cl)cc34)C(=O)NC2=O)c1 | > 100 | > 100 | > 100
14 | Cn1cc(C2=C(c3cn(CCCN/C(N)=N/[N+](=O)[O-])c4ccccc34)C(=O)NC2=O)c2ccccc21 | > 100 | > 100 | > 100
15 | Cn1cc(C2=C(c3cn(C)c4ccc(N)cc34)C(=O)NC2=O)c2ccccc21 | > 100 | > 100 | > 100
16 | Cn1cc(C2=C(c3c[nH]c4ccccc34)C(=O)NC2=O)c2ccccc21 | > 100 | > 100 | > 100
17 | CC(=O)N1CCC(Nc2ncc3cc(Oc4ccc(F)cc4F)c(=O)n(C)c3n2)CC1 | > 100 | > 100 | > 100
18 | O=C1C(c2c[nH]c3ccccc23)=C(c2c[nH]c3ccccc23)C(=O)N1O | > 100 | > 100 | > 100
19 | OCCn1c(-c2ccncc2)c(-c2ccc(F)cc2)c2ncccc21 | > 100 | > 100 | > 100
20 | Cc1ccccc1C1=C(c2cn(C)c3ccccc23)C(=O)NC1=O | > 100 | > 100 | > 100

Row | Compound | IC50 cell viability (PCB490-3) [µM] | IC50 cell viability (PCB490-4) [µM] | IC50 cell viability (PCB490-5) [µM]
21 | Cn1cc(C2=C(c3cccc([N+](=O)[O-])c3)C(=O)NC2=O)c2ccccc21 | > 100 | > 100 | > 100
22 | O=c1c(Oc2ccc(F)cc2F)cc2cnc(NC3CCOCC3)nc2n1C1CCS(=O)(=O)CC1 | > 100 | > 100 | > 100
23 | Cc1ccc2c(c1)c(C1=C(c3cn(C)c4ccccc34)C(=O)NC1=O)cn2C | > 100 | > 100 | > 100
24 | CO/N=C(\c1ccccc1)c1cnn(-c2ccccc2)c1N | > 100 | > 100 | > 100
25 | CN(C)CC#Cc1cccc(C(=O)c2cnn(-c3ccc(F)cc3)c2N)c1 | > 100 | > 100 | > 100
26 | Cc1[nH]n(-c2ccccc2)c(=O)c1C(=O)c1ccccc1 | > 100 | > 100 | > 100
27 | Cn1cc(C2=C(c3cn(CCCCN)c4ccccc34)C(=O)NC2=O)c2ccccc21 | > 100 | > 100 | > 100
28 | Cn1c(=O)c(Oc2ccccc2)cc2cnc(NC3CCOCC3)nc21 | > 100 | > 100 | > 100
29 | CCCn1cc(C2=C(c3cn(C)c4ccccc34)C(=O)NC2=O)c2ccccc21 | > 100 | > 100 | > 100
30 | CCNC(=O)[C@@H]1CCCN2C(=O)CC[C@H](NC(=O)[C@H](Cc3ccc(OP(=O)(O)O)cc3)NC(C)=O)C(=O)N12 | > 100 | > 100 | > 100
31 | COc1ccc2c(C3=C(c4cn(C)c5ccccc45)C(=O)NC3=O)cn(C)c2c1 | > 100 | > 100 | > 100
32 | Nc1c(C(=O)c2cccc(C(O)(CO)CO)c2)cnn1-c1ccc(F)cc1 | > 100 | > 100 | > 100
33 | Cc1ccc(C)c(C2=C(c3cn(C)c4ccccc34)C(=O)NC2=O)c1 | > 100 | > 100 | > 100
34 | C[C@@H](CS(C)(=O)=O)Nc1ncc2cc(Oc3ccc(F)cc3F)c(=O)n(C)c2n1 | > 100 | > 100 | > 100
35 | CN1C[C@@H]2Cn3c(c(C4=C(c5cn(C)c6ccccc56)C(=O)NC4=O)c4ccccc43)C[C@H]2C1 | > 100 | > 100 | > 100
36 | Cn1c(=O)c(Oc2ccc(F)cc2F)cc2cnc(NC3CCOCC3)nc21 | > 100 | > 100 | > 100
37 | O=C1NC(=NCCc2cccc(Cl)c2)S/C1=C\c1ccc2ncccc2c1 | > 100 | > 100 | > 100
38 | CCc1c(C)nc2sc3c(N)ncnc3c2c1C | > 100 | > 100 | > 100
39 | COc1cc[nH]c1/C=C1\C(=O)Nc2ccc(F)c(C#C[C@@H](O)[C@@H](N)[C@@H](C)O)c21 | > 100 | 4.44 | 2.07
40 | O=C1NC(=N[C@@H](CO)c2ccccc2)S/C1=C\c1ccc2ncccc2c1 | > 100 | > 100 | > 100

Row | Compound | IC50 cell viability (PCB490-3) [µM] | IC50 cell viability (PCB490-4) [µM] | IC50 cell viability (PCB490-5) [µM]
41 | CN1CCN(CCc2cccc(C(=O)c3cnn(-c4ccc(F)cc4)c3N)c2)CC1 | > 100 | > 100 | > 100
42 | Cn1c(=O)c(Oc2ccccc2F)cc2cnc(NC3CCOCC3)nc21 | > 100 | > 100 | > 100
43 | COc1ccc(OC)c(C2=C(c3cn(C)c4ccccc34)C(=O)NC2=O)c1 | > 100 | > 100 | > 100
44 | CNc1ncc2cc(Oc3ccc(F)cc3F)c(=O)n(C)c2n1 | > 100 | > 100 | > 100
45 | COc1ccc(O)c(C(=O)c2ccc(C(=O)N[C@@H]3CCCNC[C@H]3NC(=O)c3ccncc3)cc2)c1F | > 100 | > 100 | > 100
46 | Cn1cc(C2=C(Nc3ccccc3)C(=O)NC2=O)c2ccccc21 | > 100 | > 100 | > 100
47 | O=C1Nc2ccc(F)cc2/C1=C/c1ccc[nH]1 | > 100 | > 100 | > 100
48 | COc1cc[nH]c1/C=C1\C(=O)Nc2ccc(F)c(I)c21 | > 100 | > 100 | > 100
49 | C[C@H](CS(C)(=O)=O)Nc1ncc2cc(Oc3ccc(F)cc3F)c(=O)n(C)c2n1 | > 100 | > 100 | > 100
50 | N#Cc1ccc(C(=O)c2cnn(-c3ccc(F)cc3)c2N)cc1 | > 100 | > 100 | > 100
51 | Nc1c(C(=O)c2cccc(C(O)CO)c2)cnn1-c1ccc(F)cc1 (stereo not given) | > 100 | > 100 | > 100
52 | Cn1cc(C2=C(N3CCOCC3)C(=O)NC2=O)c2ccccc21 | > 100 | > 100 | > 100
53 | N=C1N=C(N)/C(=C/c2ccc3ncccc3c2)S1 | > 100 | > 100 | > 100
54 | COc1ccc(C2=C(c3cn(C)c4ccccc34)C(=O)NC2=O)cc1OC | > 100 | > 100 | > 100
55 | COc1ccccc1CN=C1NC(=O)/C(=C/c2ccc3ncccc3c2)S1 | > 100 | > 100 | > 100
56 | O=c1c(Oc2ccc(F)cc2F)cc2cnc(NC3CCOCC3)nc2n1C1CC1 | > 100 | > 100 | > 100
57 | C/C(=C1/SC(=NCc2cccs2)NC1=O)c1ccc2ncccc2c1 | > 100 | > 100 | > 100
58 | O=[N+]([O-])c1ccc2c(c1)C(c1ccccc1Cl)=Nc1cn[nH]c1N2 | > 100 | > 100 | > 100
59 | N#Cc1cccc(C(=O)c2cnn(-c3ccc(F)cc3)c2N)c1 | > 100 | > 100 | > 100
60 | CS(=O)(=O)CCn1c(=O)c(Oc2ccc(F)cc2F)cc2cnc(NC3CCOCC3)nc21 | > 100 | > 100 | > 100
